Results on 3 molecules are retold here after ChEMBL document CHEMBL1151278, “Hygrocins a and B, naphthoquinone macrolides from Streptomyces hygroscopicus” (2005).

Structures are written as SMILES. In brackets after ≈: the same amount, converted by molar mass.

Common to all, as to type: functional
Test [1] deals with Aspergillus fumigatus. Nature of the test: Antifungal activity against Aspergillus fumigatus by NCCLS M27A method.
Test [2] relates to Streptococcus pneumoniae. Nature of the test: Antibacterial activity against Streptococcus pneumoniae by NCCLS M27A method.
The test system of test [3] is Neisseria gonorrhoeae. Nature of the test: Antibacterial activity against Neisseria gonorrhoeae by NCCLS M27A method.
In test [4] the test system is Haemophilus influenzae. Nature of the test: Antibacterial activity against Haemophilus influenzae by NCCLS M27A method.
Test [5] concerns Candida albicans. Nature of the test: Antifungal activity against Candida albicans by NCCLS M27A method.
For test [6], the system named is Enterococcus faecalis. Nature of the test: Antibacterial activity against Streptococcus faecalis 1362/3 by NCCLS M27A method.
In test [7] the test system is Aspergillus niger. Nature of the test: Antifungal activity against Aspergillus niger by NCCLS M27A method.
Test [8] has as its system Staphylococcus aureus. Kind of test: Antibacterial activity against Staphylococcus aureus 2999 by NCCLS M27A method.
The subject of test [9] is Escherichia coli. Kind of test: Antibacterial activity against Escherichia coli 1074 by NCCLS M27A method.
Test [10] relates to Neisseria gonorrhoeae. Kind of test: Antibacterial activity against Neisseria gonorrhoeae.
Test [11] has as its system Staphylococcus aureus. Kind of test: Antibacterial activity against Staphylococcus aureus 2999.
Test [12] deals with Escherichia coli. Kind of test: Antibacterial activity against Escherichia coli 1074.
Test [13] relates to Enterococcus faecalis. Nature of the test: Antibacterial activity against Streptococcus faecalis 1362/3.
For test [14], the system named is Haemophilus influenzae. Kind of test: Antibacterial activity against Haemophilus influenzae.
For test [15], the system named is Streptococcus pneumoniae. Kind of test: Antibacterial activity against Streptococcus pneumoniae.

As for `CCC1/C=C/[C@H](O)[C@H](C)OC(=O)/C(C)=C\CC(=O)NC2=CC(=O)c3c(cc(C)c(O)c3C(=O)CC1)C2=O` (some centres undefined) [HYGROCIN A], the MIC in test [1] amounted to 16 µg/mL (≈ 31.4 µM); in test [2], 16 µg/mL (≈ 31.4 µM); in test [3] it was 64 µg/mL (≈ 126 µM); in [4], 128 µg/mL (≈ 251 µM); in test [5] it was 128 µg/mL (≈ 251 µM); in test [6], 128 µg/mL (≈ 251 µM). In addition, the MIC in [7] is 32 µg/mL (≈ 62.8 µM); in test [8], 128 µg/mL (≈ 251 µM); in test [9], 128 µg/mL (≈ 251 µM).
`CCC1/C=C/[C@H](O)[C@H](C)OC(=O)[C@@]2(C)C=CC(=O)NC3=C2C(=O)c2c(cc(C)c(O)c2C(=O)CC1)C3=O` (some centres undefined) [HYGROCIN B]: the MIC came out at 32 µg/mL (≈ 63 µM) in test [1]; 128 µg/mL (≈ 252 µM) in [2]; 128 µg/mL (≈ 252 µM) in [3]; 128 µg/mL (≈ 252 µM) in [4]; 128 µg/mL (≈ 252 µM) in test [5]; 128 µg/mL (≈ 252 µM) in [6]. Further, the MIC came out at 64 µg/mL (≈ 126 µM) in test [7], 128 µg/mL (≈ 252 µM) in test [8] and 128 µg/mL (≈ 252 µM) in test [9].
Regarding `CO[C@H]1/C=C/O[C@@]2(C)Oc3c(C)c(O)c4c(c3C2=O)C(=O)C=C(NC(=O)/C(C)=C\C=C\[C@H](C)[C@H](O)[C@@H](C)[C@@H](O)[C@@H](C)[C@H](OC(C)=O)[C@@H]1C)C4=O` [RIFAMYCIN S], the MIC in [10] is 0.1 µg/mL (≈ 0.144 µM); in test [11], 0.01 µg/mL (≈ 0.0144 µM); in [12] it was 128 µg/mL (≈ 184 µM); in test [13] it was 16 µg/mL (≈ 23 µM); in test [14] it was 0.01 µg/mL (≈ 0.0144 µM); in [15] it was 0.1 µg/mL (≈ 0.144 µM).
